Source: PubChem BioAssay (NCI)
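Cultured in 96-well plates, cells were exposed to test compound for 48 hours across five concentrations. GI50 = concentration required for 50% inhibition of growth. TGI denotes the concentration required for complete inhibition of growth.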

Legend:
Assay in all cases: inhibition of tumour cell growth, NCI panel, 48 h
M14 melanoma = test system: M14 melanoma
HOP-92 NSCLC = test system: HOP-92 NSCLC
MDA-MB-435 = test system: MDA-MB-435
U251 CNS = test system: U251 CNS
SNB-75 CNS = test system: SNB-75 CNS
HS 578T breast = test system: HS 578T breast
SF-539 CNS = test system: SF-539 CNS
RPMI-8226 leukemia = test system: RPMI-8226 leukemia
SR leukemia = test system: SR leukemia
SNB-19 CNS = test system: SNB-19 CNS
IGROV1 ovarian = test system: IGROV1 ovarian
MCF7 breast = test system: MCF7 breast
ACHN renal = test system: ACHN renal
MALME-3M melanoma = test system: MALME-3M melanoma
A498 renal = test system: A498 renal
SK-MEL-2 melanoma = test system: SK-MEL-2 melanoma
NCI-H460 lung = test system: NCI-H460 lung
LOX IMVI melanoma = test system: LOX IMVI melanoma
MOLT-4 leukemia = test system: MOLT-4 leukemia
HT29 colon = test system: HT29 colon
HCT-15 colon = test system: HCT-15 colon
MDA-MB-231 breast = test system: MDA-MB-231 breast
CAKI-1 renal = test system: CAKI-1 renal
COLO 205 colon = test system: COLO 205 colon
MDA-MB-468 breast = test system: MDA-MB-468 breast
DU-145 prostate = test system: DU-145 prostate
KM12 colon = test system: KM12 colon
SK-MEL-5 melanoma = test system: SK-MEL-5 melanoma
EKVX NSCLC = test system: EKVX NSCLC

Compound: O=C1CCC(N2Cc3cc(CC(=O)Nc4ccc(N5CCCCC5)cc4)ccc3C2=O)C(=O)N1 (configuration not stated)
- GI50 (M14 melanoma): 0.432 µM
- TGI (M14 melanoma): > 100 µM
- GI50 (HOP-92 NSCLC): < 0.01 µM
- TGI (HOP-92 NSCLC): > 100 µM
- GI50 (MDA-MB-435): > 100 µM
- TGI (MDA-MB-435): > 100 µM
- GI50 (U251 CNS): 46.8 µM
- TGI (U251 CNS): > 100 µM
- GI50 (SNB-75 CNS): 0.0288 µM
- TGI (SNB-75 CNS): 99.2 µM
- GI50 (HS 578T breast): < 0.0166 µM
- TGI (HS 578T breast): > 100 µM
- GI50 (SF-539 CNS): 25.1 µM
- TGI (SF-539 CNS): > 100 µM
- GI50 (RPMI-8226 leukemia): 20.1 µM
- TGI (RPMI-8226 leukemia): > 100 µM
- GI50 (SR leukemia): > 100 µM
- TGI (SR leukemia): > 100 µM
- GI50 (SNB-19 CNS): 0.0594 µM
- TGI (SNB-19 CNS): > 100 µM
- GI50 (IGROV1 ovarian): < 0.0104 µM
- TGI (IGROV1 ovarian): > 100 µM
- GI50 (MCF7 breast): 12.4 µM
- TGI (MCF7 breast): > 100 µM
- GI50 (ACHN renal): > 100 µM
- TGI (ACHN renal): > 100 µM
- GI50 (MALME-3M melanoma): < 0.01 µM
- TGI (MALME-3M melanoma): 0.0124 µM
- GI50 (A498 renal): 0.164 µM
- TGI (A498 renal): > 85.2 µM
- GI50 (SK-MEL-2 melanoma): 2.16 µM
- TGI (SK-MEL-2 melanoma): > 100 µM
- GI50 (NCI-H460 lung): > 100 µM
- TGI (NCI-H460 lung): > 100 µM
- GI50 (LOX IMVI melanoma): > 100 µM
- TGI (LOX IMVI melanoma): > 100 µM
- GI50 (MOLT-4 leukemia): < 0.01 µM
- TGI (MOLT-4 leukemia): > 100 µM
- GI50 (HT29 colon): 19 µM
- TGI (HT29 colon): > 100 µM
- GI50 (HCT-15 colon): 0.0368 µM
- TGI (HCT-15 colon): > 100 µM
- GI50 (MDA-MB-231 breast): < 0.01 µM
- GI50 (CAKI-1 renal): 2.06 µM
- TGI (CAKI-1 renal): > 100 µM
- GI50 (COLO 205 colon): 0.0118 µM
- TGI (COLO 205 colon): > 100 µM
- GI50 (MDA-MB-468 breast): < 0.01 µM
- TGI (MDA-MB-468 breast): < 0.0282 µM
- GI50 (DU-145 prostate): > 81.6 µM
- TGI (DU-145 prostate): > 100 µM
- GI50 (KM12 colon): 2.37 µM
- TGI (KM12 colon): > 100 µM
- GI50 (SK-MEL-5 melanoma): 1.76 µM
- TGI (SK-MEL-5 melanoma): > 100 µM
- GI50 (EKVX NSCLC): > 34.5 µM
- TGI (EKVX NSCLC): > 100 µM
